Experimental data from ChEMBL document CHEMBL1201862, “PubChem BioAssay data set” (2004).
The source made the active and inactive calls.

Assays:
[1] = molecular target: T1, Long-chain-fatty-acid--AMP ligase FadD28 (Mycobacterium tuberculosis, UniProt P9WQ59); experiment: Fluorescence polarization aasay to screen for inhibitors that compete for the binding of FadD28 to a bisubstrate Measured in Biochemical System Using Plate Reader - 2147-01_Inhibitor_Dose_CherryPick_Activity.; assay type: functional, Mycobacterium tuberculosis H37Rv
T1 sequence (P9WQ59 whole entry): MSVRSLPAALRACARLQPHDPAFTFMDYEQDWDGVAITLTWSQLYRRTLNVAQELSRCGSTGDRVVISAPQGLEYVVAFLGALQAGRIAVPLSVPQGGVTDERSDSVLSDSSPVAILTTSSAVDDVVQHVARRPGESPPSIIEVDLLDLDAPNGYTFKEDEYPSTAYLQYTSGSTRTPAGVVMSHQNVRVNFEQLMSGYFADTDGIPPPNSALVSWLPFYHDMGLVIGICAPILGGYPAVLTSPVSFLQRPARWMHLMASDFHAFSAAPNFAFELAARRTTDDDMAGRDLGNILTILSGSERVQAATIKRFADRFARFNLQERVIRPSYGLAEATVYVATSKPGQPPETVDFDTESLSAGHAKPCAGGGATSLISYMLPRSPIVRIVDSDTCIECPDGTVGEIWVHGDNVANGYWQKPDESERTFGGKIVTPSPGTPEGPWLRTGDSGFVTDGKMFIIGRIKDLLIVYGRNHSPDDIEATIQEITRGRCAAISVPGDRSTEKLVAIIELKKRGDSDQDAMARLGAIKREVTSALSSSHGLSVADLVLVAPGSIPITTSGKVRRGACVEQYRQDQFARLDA

[2] = molecular target: Glucose-6-phosphate 1-dehydrogenase (Homo sapiens, UniProt P11413); experiment: inhibition of Homo sapiens G6PD, dose series – biochemical, fluorescence, selectivity assay for P. falciparum G6PD inhibitor project, dose response (AID 504792); assay type: functional
[3] = molecular target: T2, Polyadenylate-binding protein 1 (Homo sapiens, UniProt P11940); experiment: MLLE binding blockers, Cy5 peptide tracer – biochemical, fluorescence polarization, Cy5-PAM2 peptide, secondary, miRNA deadenylation inhibitor project, dose response (AID 602260); assay type: functional; settings: read-out: IC50_Mean
[4] = molecular target: T2, Polyadenylate-binding protein 1; experiment: MLLE domain peptide-binding blockers, IC50 – biochemical, fluorescence polarization, FITC-PAM2 peptide, dose response (AID 602259); assay type: functional; settings: read-out: IC50_Mean
Cytochrome P450 3A4 = Cytochrome P450 3A4 (Homo sapiens, UniProt P08684);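 note: CYP3A4 tested as one member of a cytochrome P450 panel screen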
[5] = molecular target: T3, Calpain-2 catalytic subunit (Sus scrofa, UniProt P43367); experiment: m-calpain protease blockers, concentration series – biochemical, fluorogenic peptide substrate, dose response (AID 1420); assay type: functional
T3 sequence (P43367 whole entry): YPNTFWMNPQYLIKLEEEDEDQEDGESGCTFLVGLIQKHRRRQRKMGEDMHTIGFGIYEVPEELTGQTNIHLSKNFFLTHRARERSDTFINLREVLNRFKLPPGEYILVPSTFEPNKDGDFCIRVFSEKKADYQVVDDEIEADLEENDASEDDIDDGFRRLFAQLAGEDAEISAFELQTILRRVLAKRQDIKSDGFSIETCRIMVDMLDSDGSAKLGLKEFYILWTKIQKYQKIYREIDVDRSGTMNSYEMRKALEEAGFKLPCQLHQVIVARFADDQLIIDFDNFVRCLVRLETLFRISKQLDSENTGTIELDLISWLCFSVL

Cytochrome P450 2D6 = Cytochrome P450 2D6 (Homo sapiens, UniProt P10635);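 note: CYP2D6 member of a cytochrome P450 panel assay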
Cytochrome P450 2C9 = Cytochrome P450 2C9 (Homo sapiens, UniProt P11712)
Cytochrome P450 1A2 = molecular target: T4, Cytochrome P450 1A2 (Homo sapiens, UniProt P05177);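 note: PubChem cytochrome P450 panel assay, CYP1A2 panel member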
T4 sequence (P05177 whole entry): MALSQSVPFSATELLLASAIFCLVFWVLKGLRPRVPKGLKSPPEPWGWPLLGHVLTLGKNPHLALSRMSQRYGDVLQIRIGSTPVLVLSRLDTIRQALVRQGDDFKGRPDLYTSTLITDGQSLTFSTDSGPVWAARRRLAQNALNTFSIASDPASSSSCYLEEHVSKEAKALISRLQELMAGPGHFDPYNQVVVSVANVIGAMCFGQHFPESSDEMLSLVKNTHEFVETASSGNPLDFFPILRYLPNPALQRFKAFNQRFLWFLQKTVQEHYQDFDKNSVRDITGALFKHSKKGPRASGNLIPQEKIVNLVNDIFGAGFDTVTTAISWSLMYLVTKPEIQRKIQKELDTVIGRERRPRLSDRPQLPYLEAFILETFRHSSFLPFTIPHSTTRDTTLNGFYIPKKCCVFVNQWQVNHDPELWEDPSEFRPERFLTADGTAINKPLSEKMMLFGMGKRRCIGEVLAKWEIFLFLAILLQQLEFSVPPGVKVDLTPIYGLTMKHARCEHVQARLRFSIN

cells [6] = assay type: functional, cell-based
cells [7] = assay type: functional, cell-based; remark: listed apart in the source
[8] = Luminescence Cell-Based Dose Confirmation HTS to Identify Inhibitors of Platelet Dense Granule Release. [Related pubchem assays: 1663 (Primary HTS), 1678 (Summary of Project)]; assay type: functional
[9] = A549 cell cytotoxicity, dose response, cytotoxicity control, plate reader, cherry-pick, antagonist series (AID 743412); assay type: functional, cell-based
[10] = blockade of melanocortin 4 receptor signaling – cell-based, plate reader, cherry pick, counter-screen for LGR2 antagonist project, dose response (AID 743444); assay type: functional;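 note: transfected HEK 293 cells stimulated with alpha-MSH peptide; potency of inhibitors of the alpha-MSH evoked signal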
[11] = viability loss in HEK293 cells – cell-based, plate reader, cherry-picked samples, cytotoxicity control, dose response (AID 743446); assay type: functional
[12] = molecular target: Luciferin 4-monooxygenase (Photinus pyralis, UniProt P08659); experiment: inhibition of purified Photinus pyralis luciferase – biochemical, luminescence, dose response (AID 1891)
[13] = blockers of bursicon-stimulated LGR2 cAMP reporter – cell-based, HEK293, CRE-luciferase reporter, cherry pick, set 2, dose response (AID 743343); assay type: functional;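 note: transfected cells were stimulated with diluted bursicon conditioned medium after compound addition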
[14] = alpha-synuclein stem-loop luciferase translation blockers – H4 neuroglioma cells, luminescence, confirmation (AID 1988); assay type: functional, cell-based
[15] = luciferase reporter signal suppression in cells – H4 neuroglioma cells, luminescence, dose response (AID 1990); assay type: functional, cell-based
[16] = Luminescence Cell-Based Dose Response HTS to Identify Inhibitors of 5'UTR Stem-Loop Driven Prion Protein mRNA Translation in H4 Neuroglioblastoma Cells. [Related pubchem assays: 1827 (Project Summary), 1813 (Primary HTS)]; assay type: functional
[17] = THP-1 cell cytotoxicity, dose response, cytotoxicity control for non-replicating M. tuberculosis project (AID 489025); assay type: functional
INS1 = experiment: INS-1E survival protection against cytokine death – cell-based, luminescence, retest, dose response (AID 449756); assay type: functional; settings: Rattus norvegicus;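 note: cell death triggered by IL-1 beta plus TNF-alpha plus IFN-gamma mixture; protective hits raise ATP signal compared with cytokine alone wells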
cells [18] = assay type: functional
[19] = NIH3T3 cell viability loss – ATP luminescence, mouse fibroblasts, counter-screen, dose response (AID 2010); assay type: functional, cell-based;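 note: cells exposed to compound for about 90 hours before reading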
[20] = Trypanosoma cruzi growth suppression in host cells – NIH3T3 host cells, beta-gal luminescence, confirmation (AID 2044); assay type: functional, cell-based;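 note: intracellular parasites grown in NIH/3T3 mouse fibroblasts as host cells; luminescent beta-galactosidase reporter signal from transgenic T. cruzi replicating inside host cells; inhibitors lower the luminescence signal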
[21] = fluconazole-exposed Candida albicans growth modulators – fluorescence, retest, confirmation (AID 2467); assay type: functional, cell-based
[22] = NIH-3T3 fibroblast cytotoxicity, dose response, cytotoxicity control, cell-based, fluorescence, Alamar Blue, secondary assay (AID 2327); assay type: functional;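 note: NIH-3T3 mouse fibroblasts cultured with fluconazole at 8 µg/mL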
[23] = reduced cellular PGC1a acetyl-lysine signal – cell-based, cherry-picked samples, dose response (AID 720514); assay type: functional;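 note: potency may reflect raised or lowered acetylation signal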

Chain of Glucose-6-phosphate 1-dehydrogenase (P11413 whole entry): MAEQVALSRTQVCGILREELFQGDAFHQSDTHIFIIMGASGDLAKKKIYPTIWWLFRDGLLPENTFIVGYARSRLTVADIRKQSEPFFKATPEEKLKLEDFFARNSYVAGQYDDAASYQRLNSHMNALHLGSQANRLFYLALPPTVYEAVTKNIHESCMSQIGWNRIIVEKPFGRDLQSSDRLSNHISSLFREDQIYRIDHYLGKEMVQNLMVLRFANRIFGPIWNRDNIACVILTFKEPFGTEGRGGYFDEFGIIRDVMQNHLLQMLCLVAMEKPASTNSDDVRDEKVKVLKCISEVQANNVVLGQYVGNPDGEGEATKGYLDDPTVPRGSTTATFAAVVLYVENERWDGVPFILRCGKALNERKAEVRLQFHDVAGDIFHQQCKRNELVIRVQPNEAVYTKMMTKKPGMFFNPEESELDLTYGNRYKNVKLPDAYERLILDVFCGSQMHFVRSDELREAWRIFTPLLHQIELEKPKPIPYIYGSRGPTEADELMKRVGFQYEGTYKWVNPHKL
Chain of Cytochrome P450 2C9 (P11712 whole entry): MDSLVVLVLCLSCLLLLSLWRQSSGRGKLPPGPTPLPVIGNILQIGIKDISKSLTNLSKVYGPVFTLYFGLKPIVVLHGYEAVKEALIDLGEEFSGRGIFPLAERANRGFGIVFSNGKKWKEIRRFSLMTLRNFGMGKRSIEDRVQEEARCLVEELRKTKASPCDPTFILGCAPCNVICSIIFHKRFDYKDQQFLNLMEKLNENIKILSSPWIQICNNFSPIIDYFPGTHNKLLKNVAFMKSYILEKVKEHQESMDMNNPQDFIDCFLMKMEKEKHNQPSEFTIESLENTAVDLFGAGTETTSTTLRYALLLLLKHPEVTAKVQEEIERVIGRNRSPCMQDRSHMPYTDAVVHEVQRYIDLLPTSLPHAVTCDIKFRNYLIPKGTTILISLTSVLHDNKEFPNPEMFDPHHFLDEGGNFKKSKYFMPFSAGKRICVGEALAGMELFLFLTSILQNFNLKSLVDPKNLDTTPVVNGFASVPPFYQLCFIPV
Chain of Cytochrome P450 2D6 (P10635 whole entry): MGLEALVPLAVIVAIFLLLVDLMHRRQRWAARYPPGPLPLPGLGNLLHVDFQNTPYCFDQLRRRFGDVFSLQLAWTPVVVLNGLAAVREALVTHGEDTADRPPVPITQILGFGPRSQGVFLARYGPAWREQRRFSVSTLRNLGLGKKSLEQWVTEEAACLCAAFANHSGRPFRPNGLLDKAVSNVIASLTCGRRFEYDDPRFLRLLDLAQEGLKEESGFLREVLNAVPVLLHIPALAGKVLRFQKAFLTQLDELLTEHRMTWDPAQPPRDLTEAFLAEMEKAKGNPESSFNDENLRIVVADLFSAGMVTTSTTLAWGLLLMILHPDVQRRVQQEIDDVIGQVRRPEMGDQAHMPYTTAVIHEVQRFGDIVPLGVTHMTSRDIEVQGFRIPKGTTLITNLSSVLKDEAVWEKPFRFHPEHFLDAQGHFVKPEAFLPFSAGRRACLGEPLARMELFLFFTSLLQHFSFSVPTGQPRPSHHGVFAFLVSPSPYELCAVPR
T2 sequence (P11940 whole entry, the tested form may be a part): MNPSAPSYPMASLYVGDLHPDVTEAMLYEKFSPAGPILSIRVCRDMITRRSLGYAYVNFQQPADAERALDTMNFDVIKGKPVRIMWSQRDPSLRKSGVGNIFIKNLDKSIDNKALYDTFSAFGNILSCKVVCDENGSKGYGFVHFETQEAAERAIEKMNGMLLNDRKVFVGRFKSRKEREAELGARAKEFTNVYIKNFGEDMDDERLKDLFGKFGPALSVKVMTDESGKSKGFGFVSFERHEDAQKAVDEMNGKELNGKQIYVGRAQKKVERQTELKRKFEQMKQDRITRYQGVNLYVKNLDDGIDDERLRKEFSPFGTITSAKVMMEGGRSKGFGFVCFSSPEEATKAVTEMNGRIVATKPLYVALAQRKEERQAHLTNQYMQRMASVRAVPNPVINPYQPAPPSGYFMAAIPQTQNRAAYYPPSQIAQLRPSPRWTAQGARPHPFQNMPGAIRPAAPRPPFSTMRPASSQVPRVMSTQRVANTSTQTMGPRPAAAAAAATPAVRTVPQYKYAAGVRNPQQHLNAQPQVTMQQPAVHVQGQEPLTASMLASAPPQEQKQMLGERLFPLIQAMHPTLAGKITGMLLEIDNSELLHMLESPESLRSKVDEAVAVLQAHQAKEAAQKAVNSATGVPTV
Chain of Luciferin 4-monooxygenase (P08659 whole entry): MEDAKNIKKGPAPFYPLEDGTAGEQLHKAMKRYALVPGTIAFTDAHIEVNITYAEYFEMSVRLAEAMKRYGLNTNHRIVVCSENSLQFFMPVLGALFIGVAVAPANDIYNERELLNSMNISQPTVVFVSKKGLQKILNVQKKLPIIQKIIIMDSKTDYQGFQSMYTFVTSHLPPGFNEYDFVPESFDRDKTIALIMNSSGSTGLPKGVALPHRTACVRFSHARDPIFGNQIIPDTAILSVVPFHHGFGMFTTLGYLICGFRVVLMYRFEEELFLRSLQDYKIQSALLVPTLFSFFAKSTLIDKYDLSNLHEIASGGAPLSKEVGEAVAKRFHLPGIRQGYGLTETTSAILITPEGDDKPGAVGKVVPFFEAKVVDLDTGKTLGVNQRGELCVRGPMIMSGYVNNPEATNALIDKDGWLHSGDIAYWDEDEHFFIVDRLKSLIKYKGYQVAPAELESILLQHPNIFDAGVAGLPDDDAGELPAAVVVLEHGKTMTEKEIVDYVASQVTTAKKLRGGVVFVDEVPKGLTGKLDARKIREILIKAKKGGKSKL
Chain of Cytochrome P450 3A4 (P08684 whole entry): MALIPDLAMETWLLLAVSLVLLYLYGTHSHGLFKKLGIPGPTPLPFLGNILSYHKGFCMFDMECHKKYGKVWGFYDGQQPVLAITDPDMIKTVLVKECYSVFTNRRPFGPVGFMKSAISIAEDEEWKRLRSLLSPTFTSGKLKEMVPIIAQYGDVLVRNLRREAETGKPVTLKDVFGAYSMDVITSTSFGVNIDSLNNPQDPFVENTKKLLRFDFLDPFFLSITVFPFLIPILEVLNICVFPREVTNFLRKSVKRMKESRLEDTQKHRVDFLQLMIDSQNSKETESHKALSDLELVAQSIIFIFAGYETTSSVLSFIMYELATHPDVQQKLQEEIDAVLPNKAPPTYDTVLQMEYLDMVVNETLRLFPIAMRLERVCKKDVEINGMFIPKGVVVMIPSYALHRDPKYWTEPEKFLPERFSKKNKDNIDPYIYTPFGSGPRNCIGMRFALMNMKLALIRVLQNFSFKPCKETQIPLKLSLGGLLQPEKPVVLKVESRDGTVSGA

## CCN(CC)S(=O)(=O)c1cc(C(=O)OCC(=O)Nc2cccc(Br)c2)ccc1F
[1]
  AC50: 6.81 µM (active)

## CC1(OC(=O)C2CCCC2)C(=O)C=C2C=C(c3ccsc3)N(Cc3ccc4c(c3)OCO4)C=C2C1=O (centres undefined)
[2]
  IC50: > 80 µM (inactive)

## Cc1ccc(N=C(S)C2=C(O)c3sccc3N(C)S2(=O)=O)cc1
[3]
  IC50: > 66 µM (inactive)
[4]
  IC50: > 66 µM (inactive)
[1]
  AC50: > 100 µM (inactive)

## Cc1cccc(-n2nnc(C(=O)NC3CCCc4ccccc43)c2N)c1 (centres undefined)
Cytochrome P450 3A4
  AC50: 1.12 µM (inconclusive)
[5]
  IC50: 7.05 µM (not active)
Cytochrome P450 2D6
  AC50: 7.94 µM (inconclusive)
Cytochrome P450 2C9
  AC50: inconclusive
Cytochrome P450 1A2
  AC50: 15.8 µM (inconclusive)

## Cc1cccc(N2CCN(c3ccc(N4C(=O)CCCC4=O)cc3[N+](=O)[O-])CC2C)c1 (centres undefined)
Cells [6]
  EC50: > 350 µM (not active)
Cells [7]
  EC50: > 350 µM (not active)

## CCOC(=O)c1ccc(-n2c(N)c(C(=O)NCC3CCCO3)sc2=S)cc1 (centres undefined)
[2]
  IC50: > 80 µM (inactive)

## COc1ccc(-c2cc(-c3ccccc3)no2)cc1
[8]
  EC50: 10.3 µM (active)
[9]
  AC50: 45.1 µM (active)
[10]
  AC50: 3.84 µM (active)
[11]
  AC50: > 52 µM (inactive)
[12]
  EC50: 0.895 µM (active)
[13]
  AC50: 5.01 µM (active)

## CCNC(=O)c1ccc(-n2nc(C(F)(F)F)c3c2CCCC3)cc1
Cytochrome P450 2D6
  AC50: 8.91 µM (inconclusive)
[14]
  EC50: > 120 µM (not active)
Cytochrome P450 2C9
  AC50: inconclusive
[15]
  EC50: 18.1 µM (active)
Cytochrome P450 1A2
  AC50: 25.1 µM (inconclusive)
[16]
  EC50: 41.9 µM (active)

## O=C(Nc1ccc(S(=O)(=O)N2CCOCC2)cc1)c1ccc([N+](=O)[O-])s1
[17]
  CC50: 23.2 µM (active)
INS1
  AC50: 7.03 µM (active)
Cells [18]
  IC50: 0.7 µM (active)
[19]
  EC50: 42.8 µM (active)
[20]
  EC50: 0.394 µM (active)

## O=C(O)CCC(=O)Nc1ccc(C(=O)OCC(=O)c2ccc(Cl)cc2Cl)cc1
[1]
  AC50: > 100 µM (inactive)

## COc1ccccc1NC(c1cccnc1)c1ccc2cccnc2c1O (centres undefined)
[21]
  EC50: > 38 µM (not active)
Cells [6]
  EC50: > 350 µM (not active)
Cells [7]
  EC50: 116 µM (active)
[22]
  EC50: > 160 µM (inconclusive)

## O=C(CCC(=O)OCC(=O)c1ccc([N+](=O)[O-])cc1)Nc1ccccc1Cl
[2]
  IC50: > 80 µM (inactive)

## COc1ccc(C#Cc2ccc([C@H]3[C@@H](CO)N4CCCCN(C(=O)Nc5ccc(F)cc5)C[C@H]34)cc2)cc1
[23]
  AC50: 13.9 µM (active)

## Cc1cccc(-c2ccc([C@H]3[C@@H](CO)N4CCCCN(C(=O)c5cccnc5)C[C@@H]34)cc2)c1
[9]
  AC50: 38.4 µM (active)
[10]
  AC50: 23.5 µM (active)
[11]
  AC50: > 52 µM (inactive)
[13]
  AC50: 20.8 µM (active)

## C=CCc1ccccc1OCC(=O)N/N=C/c1ccccc1OCC
[2]
  IC50: > 80 µM (inactive)

## O=C(N/N=C(\Cc1ncc[nH]1)c1ccccc1)c1ccccc1
[14]
  EC50: > 120 µM (not active)
Cells [6]
  EC50: > 350 µM (not active)
[15]
  EC50: 12.7 µM (active)
Cells [7]
  EC50: > 350 µM (not active)
[16]
  EC50: > 120 µM (not active)

## C/C(=N\NC(=O)Cc1ccc(Br)cc1)c1cccnc1
Cells [6]
  EC50: 36.3 µM (active)
Cells [7]
  EC50: > 350 µM (not active)
